Three molecules from US20080267948A1, “Croos-B Structure Binding Compounds” (priority 2005, published 2008) can be followed below.

Test [1] addresses T1, glycated haemoglobin (Hb-AGE) (Homo sapiens, UniProt P68871+P69905).
T1 construct: purchased Sigma-Aldrich H7379
The test can be described thus: ELISA binding of IgIV to immobilized Hb-AGE and inhibition studies. The note with it: 15 μg/ml IgIV, concentration series of competitor. As for the experimental part: Binding of IgIV was determined using an enzyme linked immunosorbent assay (ELISA) set-up. For this purpose 50 μl/well of potential ligands at indicated concentrations or coat buffer only for control and background measurement purposes, were coated overnight at 4° C., with motion, in 50 mM NaHCO3 pH 9.6. Glycated albumin and Hb (BSA-AGE and Hb-AGE), control BSA and control Hb were coated at 5 μg/ml. The BSA and Hb controls were prepared freshly by dissolving lyophilized proteins at 1 mg/ml in PBS upon resuspending by pipetting, followed by a 30′ period at the roller bank, at room temperature. The protein solutions were centrifuged for 10′ at 16,000*g and diluted in coat buffer. Coat controls were performed with anti-glycated protein antibody, anti-albumin antibody, anti-Hb antibody. The alkaline phosphatase-conjugated anti-human Ig antibodies were controlled by coating the IgIV's and overlaying them the secondary antibodies. After coating the plates were washed twice with 50 mM Tris-HCl pH 7.3, 150 mM NaCl, 0.1% v/v Tween20, and blocked with 175 μl/well Blocking reagent (Roche Diagnostics, Almere, The Netherlands; catalogue number 11112589001), for 1 h at room temperature, with motion. Plates were washed twice and incubated in triplicate with indicated antibodies dilution series, plasma dilution series or controls, including binding buffer only, in the absence or presence of putative inhibitors, in binding buffer; PBS/0.1% v/v Tween20, at 50 μl/well, for 1 h at room temperature, with constant motion. After four wash cycles, secondary antibodies were added to the wells, 50 μl/well, for 45′ at room temperature, with motion. RAMPO and SWARPO were used at 2000 times dilution, goat anti-human IgG antibodies were diluted 3000 times, goat anti-human IgM antibodies were diluted 1000 times. After 5 washes with wash buffer followed by two washes with PBS, binding of antibodies was assessed. […] After 5′ absorbance was read at 405 nm. […] After 5′ absorbance was read at 490 nm. […] Triplicates were averaged and standard deviations calculated. […]

For another test, the system named is amyloid γ-globulins. The test can be described thus: Inhibition ELISA of monoclonal 7H2H2 binding to immobilized amyloid γ-globulins. Details: species or system human. As for the experimental part: When binding of a monoclonal antibody to an aggregate with amyloid-like properties was confirmed, the influence of Congo red on this interaction was tested as follows. Amyloid γ-globulins were coated onto a high-binding plate (Greiner Microlon, Bio-One GmbH, Frickenhausen, Germany), blocked with Roche blocking reagent, and overlayed with 10 times diluted hybridoma cell culture medium with a concentration series of Congo red. In addition, the inhibitory effect of compounds with cross-(structure conformation on binding of a monoclonal antibody to immobilized cross-β structure conformation comprising antigens was tested with an ELISA set-up. For this purpose, a limiting amount of antigen, i.e. 0.5 μg ml^−1 amyloid γ-globulins, was immobilized onto a Greiner high-binding plate. It was determined that 80 times diluted hybridoma cell culture supernatant contains an amount of antibody that results in less than maximal signal when used in ELISAs with immobilized proteins with cross-β structure conformation (not shown). Now, concentration series of freshly dissolved-, amyloid-, acid-denatured- and base-denatured γ-globulins at 0.1, 1, 10 and 100 μg ml^−1 was added to the 80 times diluted hybridoma cell culture supernatant, and used to overlay the immobilized amyloid γ-globulins. The amount of bound antibody was determined with RAMPO. […]
On the technique in general: ELISA stands for enzyme-linked immunosorbent assay.

For test [2], the system named is amyloid-β and glycated albumin. The experiment in a line: ELISA binding of tPA to immobilized amyloid-β and glycated albumin with Congo red or ThT. The note with it: concentration series of dye. As for the experimental part:
After 5 washes with wash buffer followed by two washes with PBS, binding of antibodies was assessed. […] Triplicates were averaged and standard deviations calculated.

The target of test [3] is T2, Hb-AGE (glucose-6-phosphate modified human haemoglobin) (Homo sapiens, UniProt P68871+P69905).
T2 construct: purchased Sigma-Aldrich H7379
T2 sequence (P69905 2-142 limits assumed): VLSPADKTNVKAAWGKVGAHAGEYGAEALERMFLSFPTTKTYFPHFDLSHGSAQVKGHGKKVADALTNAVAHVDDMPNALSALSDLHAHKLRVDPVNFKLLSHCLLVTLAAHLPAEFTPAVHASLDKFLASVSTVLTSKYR
T2 sequence (P68871 2-147 limits assumed): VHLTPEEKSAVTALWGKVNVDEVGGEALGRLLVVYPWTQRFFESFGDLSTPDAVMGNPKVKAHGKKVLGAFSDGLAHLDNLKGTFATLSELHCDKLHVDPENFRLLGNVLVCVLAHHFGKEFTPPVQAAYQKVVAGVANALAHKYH
The test can be described thus: ELISA binding of tPA to immobilized Hb-AGE, compounds co-incubated with tPA. The note with it: dye included in the tPA solution. As for the experimental part: The small compound library is depicted in Tables 4-5. […] Binding experiments were performed in single wells per compound, in a duplicate experiment. Binding data obtained with this duplicate experiment was averaged.
• 1. […] Coat buffer in control wells. • 2. wash three times with wash buffer • 3. Block all wells with 300 μl 0.5*recommended concentration Roche blocking reagent for 30 minutes at room temperature, with agitation • 4. wash twice • 5. […] Incubate for 30 minutes at room temperature, with agitation • 7. wash five times with TBS/0.1% Tween20 • 8. […] Incubate for 30 minutes at room temperature, with agitation • 10. wash five times with TBS/0.1% Tween20 • 11. Fill wells with 3000× diluted horse raddish peroxidase-labeled polyclonal rabbit anti-mouse antibody (RAMPO, DAKOCytomation) • 12. Incubate for 20 minutes at room temperature, with agitation • 13. Wash five times with TBS/0.1% Tween20 • 14. Wash twice with PBS • 15. Stain with 100 μl TMB, stop with 50 μl 10% H2SO4 • 16. Read absorbance at 450 nm

The subject of test [4] is anti-β2GPI auto-antibodies from antiphospholipid syndrome patients. The experiment in a line: Interference with binding of anti-β2GPI autoantibodies to immobilized β2GPI. Details: species or system human. The note with it: concentration series of β2GPI in solution. As for the experimental part:
β2GPI by recombinant β2GPI and not by plasma derived β2GPI When plasma derived β2GPI is coated onto hydrophilic ELISA plates, anti-β2GPI auto-antibodies isolated from plasma of antiphospholipid syndrome autoimmune patients can bind^18. To study the influence of coincubations of the coated β2GPI with the antibodies together with plasma β2GPI or recombinant β2GPI, concentration series of β2GPI were added to the patient antibodies. Subsequently, binding of the antibodies to coated β2GPI was determined.

Another test has as its target T3, factor XII (Homo sapiens, UniProt P00748).
T3 sequence (P00748 20-615): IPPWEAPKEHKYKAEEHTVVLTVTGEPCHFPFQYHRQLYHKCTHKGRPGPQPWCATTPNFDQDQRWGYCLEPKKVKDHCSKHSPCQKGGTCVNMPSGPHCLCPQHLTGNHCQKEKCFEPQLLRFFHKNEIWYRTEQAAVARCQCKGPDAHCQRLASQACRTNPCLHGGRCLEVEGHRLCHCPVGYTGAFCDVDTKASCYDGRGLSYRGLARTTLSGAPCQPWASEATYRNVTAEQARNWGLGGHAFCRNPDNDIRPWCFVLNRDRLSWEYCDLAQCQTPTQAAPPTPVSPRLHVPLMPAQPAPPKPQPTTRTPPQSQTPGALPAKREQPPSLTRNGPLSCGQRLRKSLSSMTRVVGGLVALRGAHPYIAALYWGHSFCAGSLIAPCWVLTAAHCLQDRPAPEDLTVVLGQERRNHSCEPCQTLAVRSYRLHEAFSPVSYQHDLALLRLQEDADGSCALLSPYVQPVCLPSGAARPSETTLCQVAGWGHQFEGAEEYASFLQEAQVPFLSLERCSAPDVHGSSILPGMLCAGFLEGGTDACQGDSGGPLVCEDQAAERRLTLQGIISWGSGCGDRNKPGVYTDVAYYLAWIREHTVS
The test can be described thus: ELISA binding of β2GPI to immobilized factor XII. Details: human factor XII from plasma (Calbiochem); purchased Calbiochem; host or cells: human plasma. As for the experimental part:
(§1) Binding of β2GPI was assessed with monoclonal antibody 2B2^17.

The target of the next test is tPA (Homo sapiens, UniProt P00750). The experiment in a line: ELISA binding of β2GPI to immobilized tPA. As for the experimental part:
as §1

T1 sequence (P69905 2-142 limits assumed): as the sequence (P69905 2-142 limits assumed) above
T1 sequence (P68871 2-147 limits assumed): as the sequence (P68871 2-147 limits assumed) above
Sequence of tPA (P00750 36-562): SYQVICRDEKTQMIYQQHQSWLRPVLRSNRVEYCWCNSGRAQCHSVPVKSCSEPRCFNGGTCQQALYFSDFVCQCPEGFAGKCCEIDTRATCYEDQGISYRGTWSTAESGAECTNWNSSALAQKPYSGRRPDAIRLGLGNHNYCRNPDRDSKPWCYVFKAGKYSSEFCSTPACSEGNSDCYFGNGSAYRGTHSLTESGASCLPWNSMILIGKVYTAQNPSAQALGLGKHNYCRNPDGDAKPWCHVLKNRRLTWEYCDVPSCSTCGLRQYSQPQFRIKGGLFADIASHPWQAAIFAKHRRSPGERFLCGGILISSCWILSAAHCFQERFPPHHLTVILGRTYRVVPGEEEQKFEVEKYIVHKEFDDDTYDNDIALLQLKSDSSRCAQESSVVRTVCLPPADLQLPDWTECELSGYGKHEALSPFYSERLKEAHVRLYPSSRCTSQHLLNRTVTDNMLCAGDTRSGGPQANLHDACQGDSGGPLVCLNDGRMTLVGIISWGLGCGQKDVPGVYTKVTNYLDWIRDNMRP

On to `Nc1c(/N=N/c2ccc(-c3ccc(/N=N/c4cc(S(=O)(=O)O)c5ccccc5c4N)cc3)cc2)cc(S(=O)(=O)O)c2ccccc12` [Congo red], for which the “influence on binding of IgIV to immobilized Hb-AGE” value in test [1] was “fully blocks IgIV binding”. The “inhibition of 7H2H2 binding to amyloid γ-globulins” value with amyloid γ-globulins (500 μM Congo red, diluted 7H2H2 cell culture medium) is “approximately 66%”. Moreover, the “Congo red concentrations that inhibit binding of 7H2H2” value in the test on amyloid γ-globulins (7H2H2 from 10 times diluted culture medium) is on record as “higher than 5 μM”. Also, the “inhibition of tPA binding to immobilized amyloid-β and glycated albumin” value in test [2] is listed as “effectively inhibited”. Moreover, the “influence on binding of tPA to immobilized misfolded protein” value in test [3] is given as “inhibits binding of tPA”.

For `Cc1ccc2c(c1)sc(-c1ccc(N(C)C)cc1)[n+]2C.[Cl-]` [Thioflavin T], the “influence on binding of IgIV to immobilized Hb-AGE” value in test [1] is listed as “enhance the binding of IgIV”. In addition, the “inhibition of tPA binding to immobilized amyloid-β and glycated albumin” value in test [2] is “not by ThT”. The “influence on binding of tPA to immobilized misfolded protein” value in test [3] is recorded as “promotes binding of tPA”.

B1: plasma β2GPI: β2-glycoprotein I purified from fresh human plasma (protein, UniProt P02749 20-345, looked up)
Beta-2-glycoprotein 1: GRTCPKPDDLPFSTVVPLKTFYEPGEEITYSCKPGYVSRGGMRKFICPLTGLWPINTLKCTPRVCPFAGILENGAVRYTTFEYPNTISFSCNTGFYLNGADSAKCTEEGKWSPELPVCAPIICPPPSIPTFATLRVYKPSAGNNSLYRDTAVFECLPQHAMFGNDTITCTTHGNWTKLPECREVKCPFPSRPDNGFVNYPAKPTLYYKDKATFGCHDGYSLDGPEEIECTKLGNWSAMPSCKASCKVPVKKATVVYQGERVKIQEKFKNGMLHGDKVSFFCKNKEKKCSYTEDAQCIDGTIEVPKCFKEHSSLAFWKTDASDVKPC
Regarding B1, the “inhibition of binding of anti-β2GPI auto-antibodies to immobilized β2GPI” value in test [4] is listed as “has a minor effect on antibody binding”. For the same molecule, the “binding to factor XII” value with factor XII is reported as “not bind”. The “binding to tPA” value with tPA is listed as “not bind”.
